The source of these data is PMC9573605, “Exploring Nitric Oxide (NO)-Releasing Celecoxib Derivatives as Modulators of Radioresponse in Pheochromocytoma Cells” (Molecules, 2022).

Structures are written as SMILES.

This data set is described as follows: Conversion in NO-assay buffer followed by UPLC. Type of data set: physicochemical. Particulars: 37 °C. Here is the method:
The time-dependent degradation behavior of compounds 4f, 5a–f, and 6a–d as well as celecoxib was followed by UPLC analysis over a time course of 8 days (Figure 4). For that, compounds were incubated at 37 °C in the presence or absence of cysteine in the assay buffer used for the Griess assay. Samples were withdrawn at distinct time points (1, 5, 23, 47, 70, and 191 h), diluted into a mixture of acetonitrile/water, and analyzed.
The time-dependent conversion of NO-COXIBs 5a–f and 6a–d as well as reference compounds 4f and celecoxib in the presence or absence of cysteine in assay buffer was investigated by following the degradation of intact compound and identification of selected degradation products by UPLC. For that, samples were incubated at 37 °C in the assay buffer in the presence or absence of cysteine and at the indicated time point; 5 µL assay buffer of each sample was withdrawn and diluted with 45 µL MeCN/water (50/50 v/v). The samples were thoroughly vortexed and then subjected to UPLC analysis. All samples of one time point were analyzed within a total analysis time of approximately 2.5 h. Conversion was monitored at 254 nm using the following UPLC system: column Aquity UPLC® HSS C18 column (Waters Corporation, Milford, MA, USA; 100 × 2.1 mm, 1.8 µm, 130 Å), UPLC H-Class (Waters Corporation, Milford, MA, USA): quaternary gradient pump QSM, autosampler FTN, column heater CHA, and diode array detector PDAeλ, γ detector Gabi Star (Raytest Isotopenmeßgeräte GmbH, Straubenhardt, Germany), flow rate 0.4 mL/min, eluent: (A): 0.1% acetic acid in MeCN/MeOH 1/1/(B): 0.1% acetic acid in H2O; gradient: t0min 45/55–t0.5min 45/55–t5.5min 95/5–t7.0min 95/5–t7.2min 45/55–t8.5min 45/55). For the identification of degradation products, samples taken after 24 h were additionally subjected to HPLC-HRMS analysis using HPLC system 6. In brief, the NO-COXIBs were converted to the respective hydroxymethyl-substituted compounds and in the presence of cysteine additionally to the cysteine adduct, which could be identified by the respective Δm/z shifts. A detailed comparison of calculated and found m/z-signals is given in Supplementary Material Table S1, and copies of HPLC-HRMS chromatograms and selected spectra are given in Supplementary Material Figures S56–S66.

With `CCC(=O)NS(=O)(=O)c1ccc(-n2nc(CO[N+](=O)[O-])cc2-c2ccc(OC)cc2)cc1` [6d, {5-(4-Methoxyphenyl)-1-[4-(N-propionylsulfamoyl)phenyl]-1H-pyrazol-3-yl}methyl nitrate], the intact compound entry is, setting by setting: (after 70 h, absence of cysteine) “consumed”; (after 70 h, presence of cysteine) “quantitatively consumed”.

Turning to `Cc1ccc(-c2c(Cl)c(CO[N+](=O)[O-])nn2-c2ccc(S(C)(=O)=O)cc2)cc1` [5c, {4-Chloro-1-[4-(methylsulfonyl)phenyl]-5-(p-tolyl)-1H-pyrazol-3-yl}methyl nitrate], the intact compound (after 8 days (192 h)) was determined as 57%.
